Reference: patent publication US20160256449A1, “H3 RECEPTOR ANTAGONIST FOR USE IN THE TREATMENT OF ALZHEIMER'S DISEASE” (SANOFI, priority 2013, published 2016)

System: patients with mild to moderate Alzheimer's disease
Assay: clinical study, Neuropsychiatric Inventory (NPI) domain scores
Assay type: in vivo, human
Description: A randomized, double-blind, parallel-group, placebo-controlled clinical trial was performed to study the effect on cognitive performance, safety, and tolerability of 2-(cyclohexylmethyl)-N-{2-[(2S)-1-methylpyrrolidin-2-yl]ethyl}-1,2,3,4-tetrahydroisoquinoline-7-sulfonamide difumarate monohydrate as adjunct treatment to donepezil.
More specifically, patients with mild to moderate Alzheimer's disease on stable donepezil therapy were randomized to receive doses of 0.5 mg, 2 mg, or 5 mg/day of 2-(cyclohexylmethyl)-N-{2-[(2S)-1-methylpyrrolidin-2-yl]ethyl}-1,2,3,4-tetrahydroisoquinoline-7-sulfonamide difumarate monohydrate or placebo for 24 weeks, with a 10 week follow-up period.
Patients were randomized to receive 0.5 mg, 2 mg, or 5 mg of 2-(cyclohexylmethyl)-N-{2-[(2S)-1-methylpyrrolidin-2-yl]ethyl}-1,2,3,4-tetrahydroisoquinoline-7-sulfonamide difumarate monohydrate (measured in base form), or matching placebo once a day, with donepezil (5 mg or 10 mg in the form the patient took prior to enrollment), for 24 weeks, with or without food.
[…] (NPI) domain scores of irritability/lability, anxiety, agitation/aggression, sleep and nighttime behavior disorders, aberrant motor behaviour, apathy/indifference, appetite/eating change, delusions, depression/dysphoria, disinhibition, elation/euphoria, and hallucinations.

**Q.** With `CN1CCC[C@H]1CCNS(=O)(=O)c1ccc2c(c1)CN(CC1CCCCC1)CC2` [API, 2-(cyclohexylmethyl)-N-{2-[(2S)-1-methylpyrrolidin-2-yl]ethyl}-1,2,3,4-tetrahydroisoquinoline-7-sulfonamide difumarate monohydrate] as the compound, how does the “NPI Anxiety, Ch from bl W24” value (0.5 mg/day with donepezil) read?
**A.** 0.16

**Q.** What about the “NPI Apathy/Indifference, Ch from bl W12” value (0.5 mg/day with donepezil) of the same compound?
**A.** −0.21

**Q.** And the “NPI Apathy/Indifference, Ch from bl W24” value (0.5 mg/day with donepezil)?
**A.** 0.13

**Q.** And the “NPI Appetite/Eating changes, Ch from bl W12” value (0.5 mg/day with donepezil)?
**A.** −0.58

**Q.** And the “NPI Appetite/Eating changes, Ch from bl W24” value (0.5 mg/day with donepezil)?
**A.** −0.33

**Q.** And the “NPI Delusions, Ch from bl W12” value (0.5 mg/day with donepezil)?
**A.** 0.31

**Q.** What about the “NPI Delusions, Ch from bl W24” value (0.5 mg/day with donepezil) of the same compound?
**A.** 0.28

**Q.** And the “NPI Depression/Dysphoria, Ch from bl W12” value (0.5 mg/day with donepezil)?
**A.** 0.00

**Q.** And the “NPI Depression/Dysphoria, Ch from bl W24” value (0.5 mg/day with donepezil)?
**A.** 0.07

**Q.** What about the “NPI Disinhibition, Ch from bl W12” value (0.5 mg/day with donepezil) of the same compound?
**A.** −0.13

**Q.** What about the “NPI Disinhibition, Ch from bl W24” value (0.5 mg/day with donepezil) of the same compound?
**A.** −0.06

**Q.** And the “NPI Elation/Euphoria, Ch from bl W12” value (0.5 mg/day with donepezil)?
**A.** 0.15

**Q.** And the “NPI Elation/Euphoria, Ch from bl W24” value (0.5 mg/day with donepezil)?
**A.** 0.20

**Q.** What about the “NPI Hallucination, Ch from bl W12” value (0.5 mg/day with donepezil) of the same compound?
**A.** 0.05

**Q.** And the “NPI Hallucination, Ch from bl W24” value (0.5 mg/day with donepezil)?
**A.** −0.06

**Q.** And the “NPI Irritability lability, Ch from bl W12” value (0.5 mg/day with donepezil)?
**A.** −0.07

**Q.** What about the “NPI Irritability lability, Ch from bl W24” value (0.5 mg/day with donepezil) of the same compound?
**A.** 0.09

**Q.** What about the “NPI Sleep and nighttime behavior, Ch from bl W12” value (0.5 mg/day with donepezil) of the same compound?
**A.** 0.30

**Q.** And the “NPI Sleep and nighttime behavior, Ch from bl W24” value (0.5 mg/day with donepezil)?
**A.** −0.23

**Q.** What about the “NPI Abberant motor behavior, Ch from bl W12” value (2 mg/day with donepezil) of the same compound?
**A.** 0.25

**Q.** And the “NPI Abberant motor behavior, Ch from bl W24” value (2 mg/day with donepezil)?
**A.** 0.56

**Q.** What about the “NPI Agitation/Aggression, Ch from bl W12” value (2 mg/day with donepezil) of the same compound?
**A.** 0.48

**Q.** And the “NPI Agitation/Aggression, Ch from bl W24” value (2 mg/day with donepezil)?
**A.** 0.68

**Q.** What about the “NPI Anxiety, Ch from bl W12” value (2 mg/day with donepezil) of the same compound?
**A.** −0.03

**Q.** What about the “NPI Anxiety, Ch from bl W24” value (2 mg/day with donepezil) of the same compound?
**A.** 0.15

**Q.** And the “NPI Apathy/Indifference, Ch from bl W12” value (2 mg/day with donepezil)?
**A.** 0.26

**Q.** And the “NPI Apathy/Indifference, Ch from bl W24” value (2 mg/day with donepezil)?
**A.** 0.92

**Q.** And the “NPI Appetite/Eating changes, Ch from bl W12” value (2 mg/day with donepezil)?
**A.** −0.18

**Q.** And the “NPI Appetite/Eating changes, Ch from bl W24” value (2 mg/day with donepezil)?
**A.** −0.02

**Q.** And the “NPI Delusions, Ch from bl W12” value (2 mg/day with donepezil)?
**A.** −0.05

**Q.** And the “NPI Delusions, Ch from bl W24” value (2 mg/day with donepezil)?
**A.** 0.21

**Q.** And the “NPI Depression/Dysphoria, Ch from bl W12” value (2 mg/day with donepezil)?
**A.** 0.35

**Q.** What about the “NPI Depression/Dysphoria, Ch from bl W24” value (2 mg/day with donepezil) of the same compound?
**A.** 0.12

**Q.** And the “NPI Disinhibition, Ch from bl W12” value (2 mg/day with donepezil)?
**A.** 0.08

**Q.** And the “NPI Disinhibition, Ch from bl W24” value (2 mg/day with donepezil)?
**A.** 0.03

**Q.** What about the “NPI Elation/Euphoria, Ch from bl W12” value (2 mg/day with donepezil) of the same compound?
**A.** −0.06

**Q.** What about the “NPI Elation/Euphoria, Ch from bl W24” value (2 mg/day with donepezil) of the same compound?
**A.** 0.07

**Q.** And the “NPI Hallucination, Ch from bl W12” value (2 mg/day with donepezil)?
**A.** 0.02

**Q.** And the “NPI Hallucination, Ch from bl W24” value (2 mg/day with donepezil)?
**A.** 0.02

**Q.** And the “NPI Irritability lability, Ch from bl W12” value (2 mg/day with donepezil)?
**A.** 0.47

**Q.** And the “NPI Irritability lability, Ch from bl W24” value (2 mg/day with donepezil)?
**A.** 0.63

**Q.** What about the “NPI Sleep and nighttime behavior, Ch from bl W12” value (2 mg/day with donepezil) of the same compound?
**A.** 0.33

**Q.** And the “NPI Sleep and nighttime behavior, Ch from bl W24” value (2 mg/day with donepezil)?
**A.** 0.19

**Q.** And the “NPI Abberant motor behavior, Ch from bl W12” value (5 mg/day with donepezil)?
**A.** −0.11

**Q.** And the “NPI Abberant motor behavior, Ch from bl W24” value (5 mg/day with donepezil)?
**A.** −0.69

**Q.** And the “NPI Agitation/Aggression, Ch from bl W12” value (5 mg/day with donepezil)?
**A.** −0.12

**Q.** What about the “NPI Agitation/Aggression, Ch from bl W24” value (5 mg/day with donepezil) of the same compound?
**A.** 0.58

**Q.** What about the “NPI Anxiety, Ch from bl W12” value (5 mg/day with donepezil) of the same compound?
**A.** 0.12

**Q.** What about the “NPI Anxiety, Ch from bl W24” value (5 mg/day with donepezil) of the same compound?
**A.** 0.12

**Q.** What about the “NPI Apathy/Indifference, Ch from bl W12” value (5 mg/day with donepezil) of the same compound?
**A.** 0.09

**Q.** And the “NPI Apathy/Indifference, Ch from bl W24” value (5 mg/day with donepezil)?
**A.** 0.10

**Q.** And the “NPI Appetite/Eating changes, Ch from bl W12” value (5 mg/day with donepezil)?
**A.** −0.17

**Q.** And the “NPI Appetite/Eating changes, Ch from bl W24” value (5 mg/day with donepezil)?
**A.** 0.1

**Q.** And the “NPI Delusions, Ch from bl W12” value (5 mg/day with donepezil)?
**A.** 0.00

**Q.** And the “NPI Delusions, Ch from bl W24” value (5 mg/day with donepezil)?
**A.** 0.04

**Q.** And the “NPI Depression/Dysphoria, Ch from bl W12” value (5 mg/day with donepezil)?
**A.** −0.07

**Q.** And the “NPI Depression/Dysphoria, Ch from bl W24” value (5 mg/day with donepezil)?
**A.** 0.25

**Q.** And the “NPI Disinhibition, Ch from bl W12” value (5 mg/day with donepezil)?
**A.** 0.00

**Q.** What about the “NPI Disinhibition, Ch from bl W24” value (5 mg/day with donepezil) of the same compound?
**A.** 0.06

**Q.** And the “NPI Elation/Euphoria, Ch from bl W12” value (5 mg/day with donepezil)?
**A.** 0.14

**Q.** And the “NPI Elation/Euphoria, Ch from bl W24” value (5 mg/day with donepezil)?
**A.** 0.10

**Q.** What about the “NPI Hallucination, Ch from bl W12” value (5 mg/day with donepezil) of the same compound?
**A.** −0.14

**Q.** What about the “NPI Hallucination, Ch from bl W24” value (5 mg/day with donepezil) of the same compound?
**A.** −0.15

**Q.** What about the “NPI Irritability lability, Ch from bl W12” value (5 mg/day with donepezil) of the same compound?
**A.** 0.03

**Q.** What about the “NPI Irritability lability, Ch from bl W24” value (5 mg/day with donepezil) of the same compound?
**A.** 0.47

**Q.** And the “NPI Sleep and nighttime behavior, Ch from bl W12” value (5 mg/day with donepezil)?
**A.** 0.08

**Q.** What about the “NPI Sleep and nighttime behavior, Ch from bl W24” value (5 mg/day with donepezil) of the same compound?
**A.** 0.71

**Q.** And the “domains of the NPI, overall” value (0.5, 2, 5 mg/day with donepezil)?
**A.** No relevant modification
